# Test results published in patent publication US11890279B2, “Quinolines that modulate SERCA and their use for treating disease” (Neurodon Corporation, priority 2020, dated 2024).
# System: N2a cells
# Assay: Protection against hydrogen peroxide-induced cell death, N2a
# Assay type: cell-based, mouse
# Settings: compound 40 μM; hydrogen peroxide 200 μM
# Method: Protection against Hydrogen Peroxide-induced Cell-death. N2a cells grown in 96-well plates were exposed to a test compound (40 μM) for 2 hrs before addition of hydrogen peroxide (200 μM). After 40 min of incubation with hydrogen peroxide, ALAMARBLUE® regent (10% v/v) was added to the wells. Fluorescence reading was taken 2 hrs after the addition of the ALAMARBLUE® regent. Cell-viability was calculated as a percentage of relative fluorescence unit (RFU) compared to control.
# The results are summarized in Table 2, where A represents a value greater than 50% cell rescue, B represents a value between 10% to 50% cell rescue, C represents a value between 1% to 10% cell rescue, and D represents a value no greater than 1% cell rescue.
row,Compound,N2a Cells (H2O2-induced) cell rescue
1,"Cc1ccc2cccc(NC(=O)c3cccs3)c2n1 [Compound G1, N-(2-Methylquinolin-8-yl)thiophene-2-carboxamide]",B (B represents a value between 10% to 50% cell rescue)
2,"Cc1ccc2cccc(NC(=O)c3sccc3C)c2n1 [Compound G3, 3-Methyl-N-(2-methylquinolin-8-yl)thiophene-2-carboxamide]",B (B represents a value between 10% to 50% cell rescue)
3,"Cc1ccc2cccc(NC(=O)c3ccc(Cl)s3)c2n1 [Compound G4, 5-Chloro-N-(2_methylquinolin-8-yl)thiophene-2-carboxamide]",B (B represents a value between 10% to 50% cell rescue)
4,"CC(=O)c1ccc(C(=O)Nc2cccc3ccc(C)nc23)s1 [Compound G5, 5-Acetyl-N-(2-methylquinolin-8-yl)thiophene-2-carboxamide]",B (B represents a value between 10% to 50% cell rescue)
5,"O=C(Nc1cccc2cccnc12)c1ccc(Br)s1 [Compound H1, 5-Bromo-N-(quinolin-8-yl)thiophene-2-carboxamide]",B (B represents a value between 10% to 50% cell rescue)
6,"O=C(Nc1cccc2cccnc12)c1cccs1 [Compound H2, N-(quinolin-8-yl)thiophene-2-carboxamide]",B (B represents a value between 10% to 50% cell rescue)
7,"Cc1ccc(C(=O)Nc2cccc3cccnc23)s1 [Compound H3, 5-Methyl-N-(quinolin-8-yl)thiophene-2-carboxamide]",A (A represents a value greater than 50% cell rescue)
8,"Cc1ccsc1C(=O)Nc1cccc2cccnc12 [Compound H4, 3-Methyl-N-(quinolin-8-yl)thiophene-2-carboxamide]",A (A represents a value greater than 50% cell rescue)
9,"O=C(Nc1cccc2cccnc12)c1ccc(Cl)s1 [Compound H5, 5-Chloro-N-(quinolin-8-yl)thiophene-2-carboxamide]",B (B represents a value between 10% to 50% cell rescue)
10,"CC(=O)c1ccc(C(=O)Nc2cccc3cccnc23)s1 [Compound H6, 5-Acetyl-N-(quinolin-8-yl)thiophene-2-carboxamide]",B (B represents a value between 10% to 50% cell rescue)
11,"O=C(Nc1cccc2cccnc12)c1cc2ccccc2o1 [Compound H7, N-(Quinolin-8-yl)benzofuran-2-carboxamide]",B (B represents a value between 10% to 50% cell rescue)
12,"O=C(Nc1cccc2cccnc12)c1ccc([N+](=O)[O-])s1 [Compound H8, 5-Nitro-N-(quinolin-8-yl)thiophene-2-carboxamide]",B (B represents a value between 10% to 50% cell rescue)
13,"O=C(Nc1cccc2cccnc12)c1cc(Br)cs1 [Compound H9, 4-Bromo-N-(quinolin-8-yl)thiophene-2-carboxamide]",A (A represents a value greater than 50% cell rescue)
14,"O=C(Nc1cccc2cccnc12)c1sc(Br)cc1Br [Compound H10, 3,5-Dibromo-N-(quinolin-8-yl)thiophene-2-carboxamide]",B (B represents a value between 10% to 50% cell rescue)
15,"O=C(Nc1cccc2cccnc12)c1cc(Br)c(Br)s1 [Compound H11, 4,5-Dibromo-N-(quinolin-8-yl)thiophene-2-carboxamide]",A (A represents a value greater than 50% cell rescue)

# System: not listed separately
# Assay: Pharmacokinetics in CD-1 mice
# Assay type: in vivo, mouse
# Settings: CD-1 mice; 10 mg/kg P.O. vs 2 mg/kg i.v.
# Method: Pharmacokinetics of test compounds were assessed in CD-1 mice. The compounds were formulated at 1 mg/mL in DMSO/Tween 80/water (10/10/80, vol/vol/vol) and dosed at 2 mg/kg intravenous (i.v.) or 10 mg/kg by oral gavage (P.O.) in triplicate. Blood was drawn at 0.25 h, 0.5 h, 1 hr, 2 hrs, 4 hrs, 8 hrs, and 24 hrs into EDTA containing tubes and plasma was harvested by centrifugation. Plasma (10 μL) containing 50% acetonitrile in water (5 μL) was added to 200 μL of ACN containing an internal standard. The samples were vortexed for 30 s. After centrifugation at […] and 4,000 rpm for 15 min, the supernatant was diluted 3 times with water. Then, 20 μL of diluted supernatant was injected into the LC/MS/MS system for quantitative analysis. The samples were injected onto an Agilent ZORBAX XDB-Phenyl 5μ column (50×2.10 mm). Mobile Phase A was water with 0.1% formic acid. Mobile Phase B was acetonitrile with 0.1% formic acid. Separation was achieved using a gradient of 70% A/30% B to 0% A/100% B over 2.10 min. A Shimadzu LCMS-8050 equipped with a turbo ion spray source was used for all analytical measurements. A positive ion MRM method was developed. Peak areas of the product ion were measured against the peak areas of the internal standard. Data was fit using WinNonLin (Pharsight Corporation, Mountain View, CA).
row,F [%],Compound
1,0.12,"Cc1ccc2cccc(NC(=O)c3cc(Br)cs3)c2n1 [Compound G8, 4-Bromo-N-(2-methylquinolin-8-yl)thiophene-2-carboxamide]"

# Same assay, conditions: mouse, plasma; CD-1 mice; 2 mg/kg i.v. or 10 mg/kg P.O.
AUC [ng·h/mL],Cmax [µM],half-life [min],Compound
0.78,0.01,36,"Cc1ccc2cccc(NC(=O)c3cc(Br)cs3)c2n1 [Compound G8, 4-Bromo-N-(2-methylquinolin-8-yl)thiophene-2-carboxamide]"

# System: CSM14.1 cells
# Assay: ER stress cell survival assay (thapsigargin);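 also: survival read as CellTiter-Glo luminescence after overnight incubation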
# Assay type: cell-based
# Settings: compound 2 μM; about 15 μM thapsigargin; CSM14.1 cells
# Method: ER Stress Cell Survival Assay
# CSM14.1 cells were maintained in Complete Medium at 32° C.; wherein the Complete Medium contained Dulbecco's modified eagle medium (DMEM) with 10% fetal bovine serum (FSB), 1% L-glutamine, 100 IU/mL penicillin, and 100 μg/mL streptomycin. The cells were recovered from cultures by trypsinization and then seeded in 384 well plates (Greiner #781098) at a concentration of 1,000 cells/well in 20 μL of DMEM Assay Medium, wherein the DMEM Assay Medium contained 2% FBS, 100 IU/mL penicillin, and 100 μg/mL streptomycin. Seeding was performed using a MultiDrop Combi reagent broadcaster. The plates were incubated overnight at 32° C.
# A test compound was prepared by 2-fold serial dilution in 100% DMSO using a BIOMEK® 2000 liquid handler (Beckman Coulter). A dose-response curve containing 10 concentrations of the test compound was obtained. Using a BIOMEK® FX liquid handler (Beckman Coulter), 2.5 μL of the test compound was transferred from the 100% DMSO serial dilution plate to an intermediate plate containing 47.5 μL of DMEM Assay Medium containing 2% FBS, 100 IU/mL penicillin, and 100 μg/mL streptomycin and mixed. To reduce or eliminate the interference from the compound's precipitation, 6 μL of the diluted compound was immediately transferred to the assay plate to achieve a high compound concentration of 100 μM in 99% DMEM Assay Medium and 1% DMSO. After the assay plates were incubated for 2 hrs, 4 μL of 112.5 μM thapsigargin (TG) (DMSO stock diluted into Assay TC Medium) was dispensed into each testing well with a MultiDrop Combi reagent broadcaster for a final concentration of about 15 μM TG. The tissue culture media (4 μL) containing vehicle only was transferred manually to each control cell using a 16 channel electronic pipette. […] High luminescence indicates cell survival.
# Alternatively, a test compound was tested at a single compound concentration (e.g., 2 μM) to determine the effect of the compound on cell survival in comparison with vehicle.
row,Compound,Cell Survival
1,"Cc1ccc2cccc(NC(=O)c3ccc(Br)cc3)c2n1 [Compound C1, 4-Bromo-N-(2-methylquinolin-8-yl)benzamide]",A (A represents a value greater than 50%)
2,"Cc1ccc2cccc(NC(=O)c3ccccc3F)c2n1 [Compound C2, 2-Fluoro-N-(2-methylquinolin-8-yl)benzamide]",A (A represents a value greater than 50%)
3,"Cc1ccc2cccc(NC(=O)c3ccccc3[N+](=O)[O-])c2n1 [Compound C3, 2-Nitro-N-(2-methylquinolin-8-yl)benzamide]",B (B represents a value between 10% and 50%)
4,"Cc1ccc2cccc(NC(=O)c3cccc(OC(F)(F)F)c3)c2n1 [Compound C4, 3-Trifluoromethoxy-N-(2-methylquinolin-8-yl)benzamide]",B (B represents a value between 10% and 50%)
5,"Cc1ccc2cccc(NC(=O)c3cccc(F)c3)c2n1 [Compound C6, 3-Fluoro-N-(2-methylquinolin-8-yl)benzamide]",C (C represents a value between 1% and 10%)
6,"Cc1ccc2cccc(NC(=O)c3cccc([N+](=O)[O-])c3)c2n1 [Compound C7, 3-Nitro-N-(2-methylquinolin-8-yl)benzamide]",C (C represents a value between 1% and 10%)
7,"Cc1ccc2cccc(NC(=O)c3ccc([N+](=O)[O-])cc3)c2n1 [Compound C8, 4-Nitro-N-(2-methylquinolin-8-yl)benzamide]",D (D represents a value no greater than 1%)
8,"Cc1ccc2cccc(NC(=O)c3ccccc3Cl)c2n1 [Compound C9, 2-Chloro-N-(2-methylquinolin-8-yl)benzamide]",D (D represents a value no greater than 1%)
9,"Cc1ccc2cccc(NC(=O)c3ccc(OC(F)(F)F)cc3)c2n1 [Compound C11, 4-Trifluoromethoxy-N-(2-methylquinolin-8-yl)benzamide]",D (D represents a value no greater than 1%)
10,"Cc1ccc2cccc(NC(=O)c3cccc(C(F)(F)F)c3)c2n1 [Compound C12, 3-Trifluoromethyl-N-(2-methylquinolin-8-yl)benzamide]",D (D represents a value no greater than 1%)
11,"CCOc1ccc(C(=O)Nc2cccc3ccc(C)nc23)cc1 [Compound C13, 4-Ethoxy-N-(2-methylquinolin-8-yl)benzamide]",D (D represents a value no greater than 1%)
12,"Cc1ccc2cccc(NC(=O)c3ccc(F)cc3)c2n1 [Compound C14, 4-Fluoro-N-(2-methylquinolin-8-yl)benzamide]",D (D represents a value no greater than 1%)
13,"Cc1ccc2cccc(NC(=O)c3cccc(Cl)c3)c2n1 [Compound C15, 3-Chloro-N-(2-methylquinolin-8-yl)benzamide]",D (D represents a value no greater than 1%)
14,"Cc1ccc2cccc(NC(=O)c3cccc(Br)c3)c2n1 [Compound C16, 3-Bromo-N-(2-methylquinolin-8-yl)benzamide]",D (D represents a value no greater than 1%)
15,"Cc1ccc2cccc(NC(=O)c3ccc(Cl)cc3)c2n1 [Compound C17, 4-Chloro-N-(2-methylquinolin-8-yl)benzamide]",D (D represents a value no greater than 1%)
16,"Cc1ccc2cccc(NC(=O)c3ccc(SC(C)C)cc3)c2n1 [Compound C21, 4-(Isopropylthio)-N-(2-methylquinolin-8-yl)benzamide]",C (C represents a value between 1% and 10%)
